Laboratory results reported in the supplement of paper PMC4862054.

What was measured:
Conditions in all cases: 72 h
HDQ-P1 [1] = system: HDQ-P1
Method in brief: (§1)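 The reported EC50 was fitted from percent-inhibition dose-response curves and censored at the highest concentration. Breast cancer cell lines (20 µl suspension) were added to 384-well plates containing compound in 5 µl medium and incubated 72 h, and viability was read with 2.5 µl CellTiter-Blue over 2 h at 37 °C at 560/590 nm. Each plate was normalised to vehicle and a positive kill control and checked by Z'-factor, and rows with zero drug sensitivity score were dropped.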

MDA-MB-453 [2] = system: MDA-MB-453
Method in brief: as §1

HCC1937 [3] = system: HCC1937
Method in brief: as §1

MDA-MB-436 [4] = system: MDA-MB-436
Method in brief: as §1

HCC1937 [5] = system: HCC1937; remark: listed apart in the source
Description: (§2)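 Drug sensitivity and resistance testing (DSRT) of breast cancer cell lines in 384-well plates, 5 concentrations in 10-fold dilutions over a compound-specific 10,000-fold range. After 72 h, cytotoxicity was read by CellTox Green fluorescence and viability by CellTiter-Glo luminescence (multiplexed), normalised to DMSO and benzethonium chloride controls. EC50 is the inflection point of the fitted dose-response curve (bottom asymptote free, so it can be relative for partial curves) and is censored at the highest tested concentration. Rows with DSS 0 (no meaningful response) were excluded.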

MDA-MB-468 [6] = system: MDA-MB-468
Description: as §2

CAL-120 [7] = system: CAL-120
Method in brief: (§3)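 Seeding of breast cancer cell lines (20 µl suspension) was done into 384-well plates pre-loaded with compound at 5 concentrations, 10-fold apart, covering a compound-specific 10,000-fold range. The plates were incubated for 72 h, read for CellTox Green fluorescence (485/520 nm), and then read for CellTiter-Glo luminescence after 10 min at room temperature. Every plate was normalised to 0.1 % DMSO and a positive kill control. Curve fitting gave the EC50, censored at the top concentration.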

CAL-148 [8] = system: CAL-148
Method in brief: as §3

HDQ-P1 [9] = system: HDQ-P1; remark: listed apart in the source
Method in brief: as §3

HCC1599 [10] = system: HCC1599
Method in brief: as §3

Hs578T [11] = system: Hs578T
Method in brief: as §3

MDA-MB-453 [12] = system: MDA-MB-453; remark: listed apart in the source
Method in brief: as §3

MCF-10A = system: MCF-10A
Method in brief: as §3

BT-474 [13] = system: BT-474
Method in brief: as §3

DU-4475 [14] = system: DU-4475
Method in brief: as §3

CAL-85-1 [15] = system: CAL-85-1
Method in brief: as §3

HCC1937 [16] = system: HCC1937; remark: listed apart in the source
Method in brief: as §3

MDA-MB-436 [17] = system: MDA-MB-436; remark: listed apart in the source
Method in brief: as §3

MDA-MB-231 [18] = system: MDA-MB-231
Method in brief: as §3

MDA-MB-468 [19] = system: MDA-MB-468; remark: listed apart in the source
Method in brief: as §3

HCC1143 [20] = system: HCC1143
Method in brief: as §3

MFM-223 [21] = system: MFM-223
Method in brief: as §3

CAL-148 [22] = system: CAL-148; remark: listed apart in the source
Description: as §2

CAL-51 [23] = system: CAL-51
Description: as §2

CAL-85-1 [24] = system: CAL-85-1; remark: listed apart in the source
Description: as §2

MDA-MB-436 [25] = system: MDA-MB-436; remark: listed apart in the source
Description: as §2

MDA-MB-231 [26] = system: MDA-MB-231; remark: listed apart in the source
Description: as §2

MFM-223 [27] = system: MFM-223; remark: listed apart in the source
Description: as §2

CAL-148 [28] = system: CAL-148; remark: listed apart in the source
Method in brief: as §1

DU-4475 [29] = system: DU-4475; remark: listed apart in the source
Method in brief: as §1

CAL-51 [30] = system: CAL-51; remark: listed apart in the source
Method in brief: as §1

CAL-85-1 [31] = system: CAL-85-1; remark: listed apart in the source
Method in brief: as §1

SK-BR-3 [32] = system: SK-BR-3
Method in brief: as §3

CAL-51 [33] = system: CAL-51; remark: listed apart in the source
Method in brief: as §3

BT-549 [34] = system: BT-549
Method in brief: as §3

CAL-120 [35] = system: CAL-120; remark: listed apart in the source
Method in brief: as §1

SK-BR-3 [36] = system: SK-BR-3; remark: listed apart in the source
Method in brief: as §1

HCC1599 [37] = system: HCC1599; remark: listed apart in the source
Method in brief: as §1

Hs578T [38] = system: Hs578T; remark: listed apart in the source
Method in brief: as §1

BT-474 [39] = system: BT-474; remark: listed apart in the source
Method in brief: as §1

MDA-MB-231 [40] = system: MDA-MB-231; remark: listed apart in the source
Method in brief: as §1

MDA-MB-468 [41] = system: MDA-MB-468; remark: listed apart in the source
Method in brief: as §1

HCC1143 [42] = system: HCC1143; remark: listed apart in the source
Method in brief: as §1

MFM-223 [43] = system: MFM-223; remark: listed apart in the source
Method in brief: as §1

BT-549 [44] = system: BT-549; remark: listed apart in the source
Method in brief: as §1

SMILES: Cc1ccc(-c2cc(C(F)(F)F)nn2-c2ccc(S(N)(=O)=O)cc2)cc1 [Celecoxib]
- EC50, CellTiter-Blue viability (HDQ-P1 [1]): 67.5 nM
- EC50, CellTiter-Blue viability (MDA-MB-453 [2]): 7690 nM
- EC50, CellTiter-Blue viability (HCC1937 [3]): 329 nM
- EC50, CellTiter-Blue viability (MDA-MB-436 [4]): 183 nM

SMILES: O=C(/C=C/c1cccnc1)NCCCCC1CCN(C(=O)c2ccccc2)CC1 [Daporinad]
- EC50, CellTox Green (HCC1937 [5]): 24.1 nM
- EC50, CellTox Green (MDA-MB-468 [6]): 596 nM
- EC50, CellTiter-Glo (CAL-120 [7]): 9.73 nM
- EC50, CellTiter-Glo (CAL-148 [8]): 81 nM
- EC50, CellTiter-Glo (HDQ-P1 [9]): 16.3 nM
- EC50, CellTiter-Glo (HCC1599 [10]): 4.15 nM
- EC50, CellTiter-Glo (Hs578T [11]): 4.27 nM
- EC50, CellTiter-Glo (MDA-MB-453 [12]): 2.71 nM
- EC50, CellTiter-Glo (MCF-10A): 7.85 nM
- EC50, CellTiter-Glo (BT-474 [13]): 40.8 nM
- EC50, CellTiter-Glo (DU-4475 [14]): 6.78 nM
- EC50, CellTiter-Glo (CAL-85-1 [15]): 7.79 nM
- EC50, CellTiter-Glo (HCC1937 [16]): 6.97 nM
- EC50, CellTiter-Glo (MDA-MB-436 [17]): 67.4 nM
- EC50, CellTiter-Glo (MDA-MB-231 [18]): 29.6 nM
- EC50, CellTiter-Glo (MDA-MB-468 [19]): 3.53 nM
- EC50, CellTiter-Glo (HCC1143 [20]): 8.05 nM
- EC50, CellTiter-Glo (MFM-223 [21]): 2.11 nM

SMILES: Nc1ccccc1NC(=O)c1ccc(CNC(=O)OCc2cccnc2)cc1 [Entinostat]
- EC50, CellTox Green (CAL-148 [22]): 4160 nM
- EC50, CellTox Green (CAL-51 [23]): 1140 nM
- EC50, CellTox Green (CAL-85-1 [24]): 4310 nM
- EC50, CellTox Green (MDA-MB-436 [25]): 6220 nM
- EC50, CellTox Green (MDA-MB-231 [26]): 7140 nM
- EC50, CellTox Green (MDA-MB-468 [6]): 1230 nM
- EC50, CellTox Green (MFM-223 [27]): 1440 nM
- EC50, CellTiter-Blue viability (CAL-148 [28]): 2990 nM
- EC50, CellTiter-Blue viability (MDA-MB-453 [2]): 2860 nM
- EC50, CellTiter-Blue viability (DU-4475 [29]): 5700 nM
- EC50, CellTiter-Blue viability (CAL-51 [30]): 7860 nM
- EC50, CellTiter-Blue viability (CAL-85-1 [31]): 2700 nM
- EC50, CellTiter-Glo (SK-BR-3 [32]): 2160 nM
- EC50, CellTiter-Glo (CAL-148 [8]): 2560 nM
- EC50, CellTiter-Glo (HDQ-P1 [9]): 2380 nM
- EC50, CellTiter-Glo (HCC1599 [10]): 4840 nM
- EC50, CellTiter-Glo (Hs578T [11]): 1550 nM
- EC50, CellTiter-Glo (MDA-MB-453 [12]): 2160 nM
- EC50, CellTiter-Glo (BT-474 [13]): 7640 nM
- EC50, CellTiter-Glo (DU-4475 [14]): 3830 nM
- EC50, CellTiter-Glo (CAL-51 [33]): 356 nM
- EC50, CellTiter-Glo (CAL-85-1 [15]): 8310 nM
- EC50, CellTiter-Glo (MDA-MB-436 [17]): 1330 nM
- EC50, CellTiter-Glo (BT-549 [34]): 925 nM
- EC50, CellTiter-Glo (MDA-MB-231 [18]): 7170 nM
- EC50, CellTiter-Glo (MDA-MB-468 [19]): 4170 nM
- EC50, CellTiter-Glo (HCC1143 [20]): 4760 nM
- EC50, CellTiter-Glo (MFM-223 [21]): 4850 nM
- EC50, CellTiter-Blue viability (CAL-120 [35]): 1890 nM
- EC50, CellTiter-Blue viability (SK-BR-3 [36]): 777 nM
- EC50, CellTiter-Blue viability (HCC1599 [37]): 3680 nM
- EC50, CellTiter-Blue viability (Hs578T [38]): 5880 nM
- EC50, CellTiter-Blue viability (BT-474 [39]): 3520 nM
- EC50, CellTiter-Blue viability (HCC1937 [3]): 1170 nM
- EC50, CellTiter-Blue viability (MDA-MB-231 [40]): 2880 nM
- EC50, CellTiter-Blue viability (MDA-MB-468 [41]): 1520 nM
- EC50, CellTiter-Blue viability (HCC1143 [42]): 5100 nM
- EC50, CellTiter-Blue viability (MFM-223 [43]): 2710 nM

SMILES: O=C(/C=C/c1cccnc1)NCCCCC1CCN(C(=O)c2ccccc2)CC1 [FK-866]
- EC50, CellTiter-Blue viability (CAL-148 [28]): 34.4 nM
- EC50, CellTiter-Blue viability (HDQ-P1 [1]): 21.3 nM
- EC50, CellTiter-Blue viability (MDA-MB-453 [2]): 1.68 nM
- EC50, CellTiter-Blue viability (DU-4475 [29]): 20.1 nM
- EC50, CellTiter-Blue viability (CAL-51 [30]): 12.6 nM
- EC50, CellTiter-Blue viability (CAL-85-1 [31]): 25.7 nM
- EC50, CellTiter-Blue viability (CAL-120 [35]): 8.66 nM
- EC50, CellTiter-Blue viability (HCC1599 [37]): 13.9 nM
- EC50, CellTiter-Blue viability (Hs578T [38]): 3.75 nM
- EC50, CellTiter-Blue viability (BT-474 [39]): 17.5 nM
- EC50, CellTiter-Blue viability (HCC1937 [3]): 80.3 nM
- EC50, CellTiter-Blue viability (MDA-MB-436 [4]): 5.08 nM
- EC50, CellTiter-Blue viability (BT-549 [44]): 6.08 nM
- EC50, CellTiter-Blue viability (MDA-MB-231 [40]): 20.1 nM
- EC50, CellTiter-Blue viability (MDA-MB-468 [41]): 3.01 nM
- EC50, CellTiter-Blue viability (HCC1143 [42]): 4.08 nM
- EC50, CellTiter-Blue viability (MFM-223 [43]): 4.05 nM

SMILES: Nc1nc(F)nc2c1ncn2[C@@H]1O[C@H](CO)[C@@H](O)[C@@H]1O [Fludarabine]
- EC50, CellTiter-Glo (CAL-120 [7]): > 10000 nM
- EC50, CellTiter-Glo (MDA-MB-436 [17]): 7390 nM
- EC50, CellTiter-Glo (BT-549 [34]): 5920 nM
- EC50, CellTiter-Blue viability (SK-BR-3 [36]): 2120 nM
- EC50, CellTiter-Blue viability (HCC1937 [3]): 1320 nM
